Experimental data as given in patent US20070254827A1, “Alpha-aminobenzyl-alpha,alpha,-diphosphoric acid selective chelation of beryllium” (priority 2006, published 2007).

Legend:
[1] = Initial mouse tolerability experiment with beryllium and chelator; type: in vivo, mice; conditions: beryllium and chelator administration, 48-hour experiment
Experimental: LLNL-IBC#2004-029. Two sets of animal experiments were performed.

[2] = Site-300 beryllium oxide debris particle chelation (ICP-MS of filtrates); type: physicochemical; conditions: pH 7, equilibrated 3 days
Experimental: The aims of this investigation were not limited to the study of beryllium in biological fluids and systems. A good chelator in the body is likely a good chelator in the environment. […] Particles were obtained from the Contained Firing Facility (CFF) at LLNL Site 300. Approximately 500 mg of beryllium oxide debris was weighed in a tared polyethylene vials and varying concentrations of APMDP chelator (pH adjusted to pH 7) were added to each vial. The vials were left to stand for 3 days, with manual shaking performed for 2 minutes each, twice a day. Samples were then filtered through a 0.2 um membrane and filtrates were analyzed by ICP-MS.

[3] = in vivo; cited from earlier work
[4] = cited from earlier work

Row | Compound | adverse effect on mice [1] | LD-50 [3] | also measured
1 | NC(c1ccccc1)(P(=O)(O)O)P(=O)(O)O [APMDP, α-aminobenzyl-α,α,-diphosphoric acid] | did not adversely affect the mice |  | dissolution of insoluble BeO fines [2]: can be dissolved
2 | NCc1ccccc1 [Benzylamine] |  | 128 mg/kg | 
3 | CC(c1ccccc1)N(C)C (centres unmarked) [N,N-dimethyl-a-methylbenzylamine] |  | 420 mg/kg | 
4 | CC(N)c1ccccc1 (centres unmarked) [a-methylbenzylamine] |  | 940 mg/kg | 
5 | O=P(O)(O)c1ccccc1 [phenylphosphonic acid] |  |  | water solubility [4]: water soluble; toxic at [3]: 110 mg/kg
6 | O=S(=O)(O)c1cc(O)c(O)c(S(=O)(=O)O)c1 [tiron] | did not adversely affect the mice |  | 
